These compounds were tested on IFV A/PR/8/34 (assay: cytopathic effect (CPE) antiviral test in MDCK cells, IFV A/PR/8/34). Details: unidentified influenza virus, PR/8, MDCK, 120 h, read-out: EC50(IFV A/PR/8/34).
Assay type: cell-based, influenza virus

In order of rising EC50:
1. CNCc1nnn(C(c2ccccc2)C2CCN(C(=O)c3cc(-c4nc5cc(NC(=O)[C@@H]6C[C@@H]6F)ccc5o4)ccn3)CC2)n1 (mixture of isomers) [Compound 211, (1S,2S)-2-fluoro-N-(2-(2-(4-((R/S)-(5-((methylamino)methyl)-2H-tetrazol-2-yl)(phenyl)methyl)piperidine-1-carbonyl)pyridin-4-yl)benzo[d]oxazol-5-yl)cyclopropane-1-carboxamide]  0.3 nM
2. NCc1nnn(C(c2ccccc2)C2CCN(C(=O)c3cc(-c4nc5cc(NC(=O)[C@@H]6C[C@@H]6F)ccc5o4)ccn3)CC2)n1 (mixture of isomers) [Compound 210, (1S,2S)—N-(2-(2-(4-((R/S)-(5-(aminomethyl)-2H-tetrazol-2-yl)(phenyl)methyl)piperidine-1-carbonyl)pyridin-4-yl)benzo[d]oxazol-5-yl)-2-fluorocyclopropane-1-carboxamide]  0.8 nM
3. O=C(Nc1ccc2oc(-c3ccnc(C(=O)N4CCC(C(c5ccccc5)n5nnc(CO)n5)CC4)c3)nc2c1)[C@@H]1C[C@@H]1F (mixture of isomers) [Compound 197, (1S,2S)-2-fluoro-N-(2-(2-(4-((R/S)-(5-(hydroxymethyl)-2H-tetrazol-2-yl)(phenyl)methyl)piperidine-1-carbonyl)pyridin-4-yl)benzo[d]oxazol-5-yl)cyclopropane-1-carboxamide]  0.9 nM
4. Cn1cncc1-c1ccc2oc(-c3ccnc(C(=O)N4CCN(C(c5ccccc5)c5nnn(C(F)F)n5)CC4)c3)nc2c1 (racemic) [Compound 126, (R/S)-(4-((2-(difluoromethyl)-2H-tetrazol-5-yl)(phenyl)methyl)piperazin-1-yl)(4-(5-(1-methyl-1H-imidazol-5-yl)benzo[d]oxazol-2-yl)pyridin-2-yl)methanone]  1 nM
5. CC(=O)OCc1nnn(C(c2ccccc2)C2CCN(C(=O)c3cc(-c4nc5cc(NC(=O)[C@@H]6C[C@@H]6F)ccc5o4)ccn3)CC2)n1 (mixture of isomers) [Compound 199, (2-((R/S)-(1-(4-(5-((1S,2S)-2-fluorocyclopropane-1-carboxamido)benzo[d]oxazol-2-yl)picolinoyl)piperidin-4-yl)(phenyl)methyl)-2H-tetrazol-5-yl)methyl acetate]  1.8 nM
6. COCn1nnc(C(c2ccccc2)N2CCN(C(=O)c3cc(-c4nc5cc(NC(=O)[C@@H]6C[C@@H]6F)ccc5o4)ccn3)CC2)n1 (mixture of isomers) [Compound 214, (1S,2S)-2-fluoro-N-(2-(2-(4-((R/S)(2-(methoxymethyl)-2H-tetrazol-5-yl)(phenyl)methyl)piperazine-1-carbonyl)pyridin-4-yl)benzo[d]oxazol-5-yl)cyclopropane-1-carboxamide]  1.9 nM
7. Cc1nnn(C(c2ccccc2)C2CCN(C(=O)c3nccc(-c4nc5cc(NC(=O)[C@@H]6C[C@@H]6F)ccc5o4)c3F)CC2)n1 (mixture of isomers) [Compound 219, (1S,2S)-2-fluoro-N-(2-(3-fluoro-2-(4-((R/S)-(5-methyl-2H-tetrazol-2-yl)(phenyl)methyl)piperidine-1-carbonyl)pyridin-4-yl)benzo[d]oxazol-5-yl)cyclopropanecarboxamide]  1.9 nM
8. O=C(Nc1ccc2oc(-c3ccnc(C(=O)N4CCC(C(c5ccccc5)c5nnn(C(F)F)n5)CC4)c3)nc2c1)[C@@H]1C[C@@H]1F (mixture of isomers) [Compound 168, (1S,2S)—N-(2-(2-(4-((R/S)-(2-(difluoromethyl)-2H-tetrazol-5-yl)(phenyl)methyl)piperidine-1-carbonyl)pyridin-4-yl)benzo[d]oxazol-5-yl)-2-fluorocyclopropane-1-carboxamide]  2 nM
9. COCc1nnn(C(c2ccccc2)C2CCN(C(=O)c3cc(-c4nc5cc(NC(=O)[C@@H]6C[C@@H]6F)ccc5o4)ccn3)CC2)n1 (mixture of isomers) [Compound 200, (1S,2S)-2-fluoro-N-(2-(2-(4-((R/S)-(5-(methoxymethyl)-2H-tetrazol-2-yl)(phenyl)methyl)piperidine-1-carbonyl)pyridin-4-yl)benzo[d]oxazol-5-yl)cyclopropane-1-carboxamide]  2.1 nM
10. O=C(Nc1ccc2oc(-c3ccnc(C(=O)N4CCN(C(c5ccccc5)c5nnn(CCO)n5)CC4)c3)nc2c1)[C@@H]1C[C@@H]1F (mixture of isomers) [Compound 212, (1S,2S)-2-fluoro-N-(2-(2-(4-((R/S)-(2-(2-hydroxyethyl)-2H-tetrazol-5-yl)(phenyl)methyl)piperazine-1-carbonyl)pyridin-4-yl)benzo[d]oxazol-5-yl)cyclopropane-1-carboxamide]  2.2 nM
11. O=C(Nc1ccc2oc(-c3ccnc(C(=O)N4CCC(C(c5ccccc5)n5nnc(C(F)F)n5)CC4)c3)nc2c1)[C@@H]1C[C@@H]1F (mixture of isomers) [Compound 138, (1S,2S)—N-(2-(2-(4-((R/S)-(5-(difluoromethyl)-2H-tetrazol-2-yl)(phenyl)methyl)piperidine-1-carbonyl)pyridin-4-yl)benzo[d]oxazol-5-yl)-2-fluorocyclopropanecarboxamide]  4 nM
12. CCn1cc(-c2ccc3oc(-c4ccnc(C(=O)N5CCN(C(c6ccccc6)c6nnn(C(F)F)n6)CC5)c4)nc3c2)cn1 (racemic) [Compound 127, (R/S)-(4-((2-(difluoromethyl)-2H-tetrazol-5-yl)(phenyl)methyl)piperazin-1-yl)(4-(5-(1-ethyl-1H-pyrazol-4-yl)benzo[d]oxazol-2-yl)pyridin-2-yl)methanone]  4 nM
13. Cc1nnn(C(c2ccccc2)C2CC3CCC(C2)N3C(=O)c2cc(-c3nc4cc(NC(=O)[C@@H]5C[C@@H]5F)ccc4o3)ccn2)n1 (mixture of isomers) [Compound 208, (1S,2S)-2-fluoro-N-(2-(2-(3-((R/S)-(5-methyl-2H-tetrazol-2-yl)(phenyl)methyl)-8-azabicyclo[3.2.1]octane-8-carbonyl)pyridin-4-yl)benzo[d]oxazol-5-yl)cyclopropanecarboxamide]  6.9 nM
14. Cc1nnn(C(c2ccccc2)C2CCN(C(=O)c3cc(-c4nc5cc(NC(=O)[C@@H]6C[C@H]6F)ccc5o4)ccn3)CC2)n1 (mixture of isomers) [Compound 190, (1S,2R)-2-fluoro-N-(2-(2-(4-((R/S)-(5-methyl-2H-tetrazol-2-yl)(phenyl)methyl)piperidine-1-carbonyl)pyridin-4-yl)benzo[d]oxazol-5-yl)cyclopropane-1-carboxamide]  11 nM
15. O=C(c1cc(-c2nc3ccc(NC(=O)C4(F)CC4)cc3o2)ccn1)N1CCN(C(c2ccccc2)c2nnn(C(F)F)n2)CC1 (racemic) [Compound 125, (R/S)—N-(2-(2-(4-((2-(difluoromethyl)-2H-tetrazol-5-yl)(phenyl)methyl)piperazine-1-carbonyl)pyridin-4-yl)benzo[d]oxazol-6-yl)-1-fluorocyclopropane-1-carboxamide]  12 nM
16. O=C(c1cc(-c2nc3cc(NC(=O)C4(F)CC4)ccc3o2)ccn1)N1CCN(C(c2ccccc2)c2nnn(C(F)F)n2)CC1 (racemic) [Compound 129]  12 nM
17. Cn1nncc1-c1ccc2oc(-c3ccnc(C(=O)N4CCN(C(c5ccccc5)c5nnn(C(F)F)n5)CC4)c3)nc2c1 (racemic) [Compound 131, (R/S)-(4-((2-(difluoromethyl)-2H-tetrazol-5-yl)(phenyl)methyl)piperazin-1-yl)(4-(5-(1-methyl-1H-1,2,3-triazol-5-yl)benzo[d]oxazol-2-yl)pyridin-2-yl)methanone]  12 nM
18. Cc1nnn(C(c2ccccc2)C2CCN(C(=O)c3cc(-c4nc5cc(NC(=O)[C@H]6C[C@@H]6F)ccc5o4)ccn3)CC2)n1 (mixture of isomers) [Compound 184, (1R,2S)-2-fluoro-N-(2-(2-(4-((R/S)-(5-methyl-2H-tetrazol-2-yl)(phenyl)methyl)piperidine-1-carbonyl)pyridin-4-yl)benzo[d]oxazol-5-yl)cyclopropanecarboxamide]  14 nM
19. O=C(Nc1ccc2nc(-c3ccnc(C(=O)N4CCN(C(c5ccccc5)c5nnn(C(F)F)n5)CC4)c3)oc2c1)[C@@H]1C[C@@H]1F (mixture of isomers) [Compound 93, (1S,2S)—N-(2-(2-(4-((R/S)-(2-(difluoromethyl)-2H-tetrazol-5-yl)(phenyl)methyl)piperazine-1-carbonyl)pyridin-4-yl)benzo[d]oxazol-6-yl)-2-fluorocyclopropane-1-carboxamide]  16 nM
20. O=C(Nc1ccc2oc(-c3ccnc(C(=O)N4CCN(C(c5ccsc5)c5nnn(C(F)F)n5)CC4)c3)nc2c1)[C@@H]1C[C@@H]1F (mixture of isomers) [Compound 122, (1S,2S)—N-(2-(2-(4-((R/S)-(2-(difluoromethyl)-2H-tetrazol-5-yl)(thiophen-3-yl)methyl)piperazine-1-carbonyl)pyridin-4-yl)benzo[d]oxazol-5-yl)-2-fluorocyclopropane-1-carboxamide]  19 nM
21. Cc1nnn(C(c2ccccc2)C2CCN(C(=O)c3cc(-c4nc5cc(NC(=O)[C@H]6C[C@H]6F)ccc5o4)ccn3)CC2)n1 (mixture of isomers) [Compound 185, (1R,2R)-2-fluoro-N-(2-(2-(4-((R/S)-(5-methyl-2H-tetrazol-2-yl)(phenyl)methyl)piperidine-1-carbonyl)pyridin-4-yl)benzo[d]oxazol-5-yl)cyclopropanecarboxamide]  24 nM
22. Cn1cc(-c2ccc3oc(-c4ccnc(C(=O)N5CCN(C(c6ccccc6)c6nnn(C(F)F)n6)CC5)c4)nc3c2)nn1 (racemic) [Compound 130, (R/S)-(4-((2-(difluoromethyl)-2H-tetrazol-5-yl)(phenyl)methyl)piperazin-1-yl)(4-(5-(1-methyl-1H-1,2,3-triazol-4-yl)benzo[d]oxazol-2-yl)pyridin-2-yl)methanone]  29 nM
23. O=C(c1cc(-c2nc3cc(-c4ccns4)ccc3o2)ccn1)N1CCN(C(c2ccccc2)c2nnn(C(F)F)n2)CC1 (racemic) [Compound 115, (R/S)-(4-((2-(difluoromethyl)-2H-tetrazol-5-yl)(phenyl)methyl)piperazin-1-yl)(4-(5-(isothiazol-5-yl)benzo[d]oxazol-2-yl)pyridin-2-yl)methanone]  64 nM

— patent publication US20230079045A1 (priority 2019, published 2023)
